Experimental data reported in patent US20070292465A1, “Eutectic biocide compositions and formulations” (Clariant International, Ltd., priority 2006, published 2007).

Columns and labels:
[1] = 25° C., for reference purposes; cited from earlier work
[2] = Physical properties at freezing temperatures and on thawing (Example 3); type: physicochemical
Description: The following samples were tested to observe their physical properties at freezing temperatures:
After blending, such as by the method above, for example, all samples were allowed to cool to room temperature (20° C.). All samples stayed liquid at room temperature, except for blend 5.
All samples were placed in a freezer overnight ([…]).
All samples were placed back in the same freezer at the same temperature for an additional 2 days. In the BCP sample, there was-no change.
All samples were left at room temperature to thaw overnight.

[3] = Brookfield viscosity, SC4-18 spindle, 100 rpm; type: physicochemical
Description: The procedure used a Brookfield viscometer.
The apparatus used was a Brookfield viscometer, Programmable DV-II+Viscometer and a SC4-18 spindle.
The samples were tested at 100 rpm and at a range of temperatures, as shown in Table 4—Viscosity Measurement Results below.
All measurements were made in centipoise. For reference purposes, the viscosity of water, at 25° C. is 0.89 centipoise, and the viscosity of ethylene glycol at 25° C. is about 16 centipoise.

SMILES	viscosity (reference) [1]	physical state after overnight freezing ([2]; freezer overnight (23° C.))	physical state after extended freezing ([2]; same freezer, same temperature, additional 2 days)	viscosity ([3]; 10 ° C.)	viscosity ([3]; 40 ° C.) [centipoise]
O [water]	0.89 centipoise	–	–	–	–
Oc1ccc(Cl)cc1Cc1ccccc1 [BCP, o-benzyl p-chlorophenol]	–	frozen solid	no change	Crystalline	29.4
OCCO [ethylene glycol]	about 16 centipoise	–	–	–	–
